Here are results for six compounds from patent publication US20240408216A1, “PROTEIN INHIBITOR OR DEGRADING AGENT, PHARMACEUTICAL COMPOSITION CONTAINING SAME AND PHARMACEUTICAL USE” (JING MEDICINE TECHNOLOGY (SHANGHAI) LTD., priority 2021, published 2024).

What is called IC50 is the concentration that gives 50% inhibition.

Each structure is given as a SMILES string.

T1 sequence (P00533 with tags, fused parts or gaps DEL746-750/C797S, form open): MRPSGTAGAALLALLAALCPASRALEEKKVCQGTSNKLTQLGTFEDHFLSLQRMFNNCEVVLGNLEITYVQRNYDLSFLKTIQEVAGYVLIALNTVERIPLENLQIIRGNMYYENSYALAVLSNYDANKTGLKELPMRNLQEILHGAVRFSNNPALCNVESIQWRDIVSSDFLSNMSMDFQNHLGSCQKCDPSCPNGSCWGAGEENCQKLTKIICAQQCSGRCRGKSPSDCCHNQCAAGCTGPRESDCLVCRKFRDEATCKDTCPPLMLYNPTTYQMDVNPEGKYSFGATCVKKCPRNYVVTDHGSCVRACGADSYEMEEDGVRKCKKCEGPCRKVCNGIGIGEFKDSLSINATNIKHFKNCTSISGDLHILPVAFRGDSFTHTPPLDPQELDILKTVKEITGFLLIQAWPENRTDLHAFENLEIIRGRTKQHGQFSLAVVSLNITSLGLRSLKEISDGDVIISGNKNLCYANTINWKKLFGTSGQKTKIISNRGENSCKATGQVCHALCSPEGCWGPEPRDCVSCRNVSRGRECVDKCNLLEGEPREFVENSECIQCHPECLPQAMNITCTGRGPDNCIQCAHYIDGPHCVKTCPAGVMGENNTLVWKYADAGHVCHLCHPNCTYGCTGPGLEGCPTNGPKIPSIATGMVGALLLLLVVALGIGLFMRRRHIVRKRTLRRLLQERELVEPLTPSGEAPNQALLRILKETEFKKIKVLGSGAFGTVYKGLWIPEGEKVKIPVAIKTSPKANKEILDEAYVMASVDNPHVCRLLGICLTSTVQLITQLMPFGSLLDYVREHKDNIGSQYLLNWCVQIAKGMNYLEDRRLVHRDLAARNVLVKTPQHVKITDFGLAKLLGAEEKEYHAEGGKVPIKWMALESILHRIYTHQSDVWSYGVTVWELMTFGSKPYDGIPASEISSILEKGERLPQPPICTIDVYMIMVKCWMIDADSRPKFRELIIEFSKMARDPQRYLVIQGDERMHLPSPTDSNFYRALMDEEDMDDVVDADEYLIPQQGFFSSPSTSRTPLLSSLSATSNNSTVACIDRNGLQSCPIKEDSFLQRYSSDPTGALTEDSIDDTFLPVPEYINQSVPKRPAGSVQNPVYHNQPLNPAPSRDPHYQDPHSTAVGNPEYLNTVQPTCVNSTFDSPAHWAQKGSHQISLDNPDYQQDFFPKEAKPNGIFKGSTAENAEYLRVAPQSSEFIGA

The test system of the first assay is BaF3 (EGFR L858R/T790M/C797S). Nature of the assay: Cell proliferation IC50 assay (Cell Titer GLO), BaF3 LTC cells. Format: cell-based. The following applies: Mus musculus, Ba/F3 EGFR, Table 6, 72 h. The protocol: (§1) IC50 of compounds in the present invention was determined by Cell Titer GLO reagent from Promega. The procedures are as follows:
(§2) Tumor cells were cultured in specified medium in an incubator at 37° C. and 5% CO2. The cells were passaged periodically. Cells at the logarithmic growth phase were collected for plating at a density of 2000-4000 cells/well. The next day, the compounds of the present invention were serially diluted and added to the cells, with DMSO being the negative control and the culture media without cells being the blank control. The plate was incubated in the incubator for 72 h. The cell viability assay was performed by adding the detection reagents to the cell culture media according to Cell Titer GLO reagent instructions and detecting luminescent signals on an EnVision microplate reader (PerkinElmer).
(§3) Inhibition of cell growth by the compounds of the present invention was plotted by Prism Graphpad software for statistically calculating the IC50 of the compound of the present invention.
Take `CCc1cc(Nc2ncc(Cl)c(Nc3ccccc3P(C)(C)=O)n2)c(OC)nc1N1CCC(N2CCN(CCC#Cc3cccc4c3CN(C3CCC(=O)NC3=O)C4=O)CC2)CC1` (stereo not drawn) [Example E41]: the IC50 is 44.4 nM.
Same read-out and setting: the value for `CCc1cc(Nc2ncc(Cl)c(Nc3ccccc3P(C)(C)=O)n2)c(OC)cc1N1CCC2(CCN(C(=O)CCCOc3cccc4c3CN(C3CCC(=O)NC3=O)C4=O)CC2)CC1` (stereo not drawn) [Example E90] was 143 nM.
Regarding `CCc1cc(Nc2ncc(C(=O)OC(C)C)c(Nc3ccccc3P(C)(C)=O)n2)c(OC)cc1N1CCC(N2CCN(CCCCOc3cccc4c3CN(C3CCC(=O)NC3=O)C4=O)CC2)CC1` (stereo not drawn) [Example E105], the IC50 came out at 2060 nM.
The compound `CCc1cc(Nc2ncc(Cl)c(Nc3ccccc3P(C)(C)=O)n2)c(OC)cc1N1CCC(N2CCN(CCC#Cc3ccc4c(c3)c(N3CCC(=O)NC3=O)nn4C)CC2)CC1` [Example E145] returned an IC50 of 506 nM.
The same measure, in the same setting: then `CCc1cc(Nc2ncc(-c3ccnn3C)c(Nc3ccccc3P(C)(C)=O)n2)c(OC)cc1N1CCC(N2CCN(CCOc3cccc4c3CN(C3CCC(=O)NC3=O)C4=O)CC2)CC1` (stereo not drawn) [Example E176], with more than 4000 nM; and `CCc1cc(Nc2ncc(-c3cnn(C)c3)c(Nc3ccccc3P(C)(C)=O)n2)c(OC)cc1N1CCC(N2CCN([C@H]3C[C@H](Oc4cc(F)cc5c4CN(C4CCC(=O)NC4=O)C5=O)C3)CC2)CC1` (stereo partly drawn) [Example E222], with 89.7 nM.

The next assay concerns the target T1, BaF3 (EGFR Del19/C797S) (Homo sapiens, UniProt P00533, C797S, cells depend on it, form not given).
T1 construct: BaF3 (EGFR Del19/C797S)|DC|RPMI1640 + 10% FBS
The experiment in a line: Cell proliferation IC50 assay (Cell Titer GLO), BaF3 DC cells. It is filed as cell-based, mouse. The note with it: Table 6, 72 h. The procedure: as §1, §2, §3
The compound `CCc1cc(Nc2ncc(Cl)c(Nc3ccccc3P(C)(C)=O)n2)c(OC)nc1N1CCC(N2CCN(CCC#Cc3cccc4c3CN(C3CCC(=O)NC3=O)C4=O)CC2)CC1` (stereo not drawn) [Example E41] gave an IC50 of 8.2 nM.
The same measure, in the same setting: the value for `CCc1cc(Nc2ncc(Cl)c(Nc3ccccc3P(C)(C)=O)n2)c(OC)cc1N1CCC2(CCN(C(=O)CCCOc3cccc4c3CN(C3CCC(=O)NC3=O)C4=O)CC2)CC1` (stereo not drawn) [Example E90] was 13.1 nM; that for `CCc1cc(Nc2ncc(C(=O)OC(C)C)c(Nc3ccccc3P(C)(C)=O)n2)c(OC)cc1N1CCC(N2CCN(CCCCOc3cccc4c3CN(C3CCC(=O)NC3=O)C4=O)CC2)CC1` (stereo not drawn) [Example E105] was 10.5 nM.
Take `CCc1cc(Nc2ncc(Cl)c(Nc3ccccc3P(C)(C)=O)n2)c(OC)cc1N1CCC(N2CCN(CCC#Cc3ccc4c(c3)c(N3CCC(=O)NC3=O)nn4C)CC2)CC1` [Example E145]: the IC50 was found to be 79.1 nM.
The same measure, in the same setting: then `CCc1cc(Nc2ncc(-c3ccnn3C)c(Nc3ccccc3P(C)(C)=O)n2)c(OC)cc1N1CCC(N2CCN(CCOc3cccc4c3CN(C3CCC(=O)NC3=O)C4=O)CC2)CC1` (stereo not drawn) [Example E176], with 2.4 nM; and `CCc1cc(Nc2ncc(-c3cnn(C)c3)c(Nc3ccccc3P(C)(C)=O)n2)c(OC)cc1N1CCC(N2CCN([C@H]3C[C@H](Oc4cc(F)cc5c4CN(C4CCC(=O)NC4=O)C5=O)C3)CC2)CC1` (stereo partly drawn) [Example E222], with less than 0.24 nM.

In another assay the test system is A431. Nature of the assay: Cell proliferation IC50 assay (Cell Titer GLO), A431 cells. It is filed as cell-based. The following applies: Homo sapiens, A-431; Table 6; A431, 72 h; read-out: A431 IC50. The procedure: as §1, §2, §3
For orientation: ATP-based viability assays read luminescence as a measure of living cells.
For `CCc1cc(Nc2ncc(Cl)c(Nc3ccccc3P(C)(C)=O)n2)c(OC)nc1N1CCC(N2CCN(CCC#Cc3cccc4c3CN(C3CCC(=O)NC3=O)C4=O)CC2)CC1` (stereo not drawn) [Example E41], the IC50 came out at 2240 nM.
As to `CCc1cc(Nc2ncc(Cl)c(Nc3ccccc3P(C)(C)=O)n2)c(OC)cc1N1CCC2(CCN(C(=O)CCCOc3cccc4c3CN(C3CCC(=O)NC3=O)C4=O)CC2)CC1` (stereo not drawn) [Example E90], the concentration for half-maximal inhibition (IC50) was not below 3700 nM.
The same measure, in the same setting: then `CCc1cc(Nc2ncc(C(=O)OC(C)C)c(Nc3ccccc3P(C)(C)=O)n2)c(OC)cc1N1CCC(N2CCN(CCCCOc3cccc4c3CN(C3CCC(=O)NC3=O)C4=O)CC2)CC1` (stereo not drawn) [Example E105], with 1970 nM; and `CCc1cc(Nc2ncc(Cl)c(Nc3ccccc3P(C)(C)=O)n2)c(OC)cc1N1CCC(N2CCN(CCC#Cc3ccc4c(c3)c(N3CCC(=O)NC3=O)nn4C)CC2)CC1` [Example E145], with 1110 nM.
As for `CCc1cc(Nc2ncc(-c3ccnn3C)c(Nc3ccccc3P(C)(C)=O)n2)c(OC)cc1N1CCC(N2CCN(CCOc3cccc4c3CN(C3CCC(=O)NC3=O)C4=O)CC2)CC1` (stereo not drawn) [Example E176], the IC50 is more than 4000 nM.
Same read-out and setting: the value for `CCc1cc(Nc2ncc(-c3cnn(C)c3)c(Nc3ccccc3P(C)(C)=O)n2)c(OC)cc1N1CCC(N2CCN([C@H]3C[C@H](Oc4cc(F)cc5c4CN(C4CCC(=O)NC4=O)C5=O)C3)CC2)CC1` (stereo partly drawn) [Example E222] was more than 4000 nM.

In the next assay the test system is BaF3 (EGFR WT). The experiment in a line: Cell proliferation IC50 assay (Cell Titer GLO), BaF3 WT cells. The following applies: Mus musculus, Ba/F3 EGFR, Table 6, 10 ng/ml EGF, 72 h. It is filed as cell-based. The procedure:
as §1, §2, §3
Take `CCc1cc(Nc2ncc(Cl)c(Nc3ccccc3P(C)(C)=O)n2)c(OC)nc1N1CCC(N2CCN(CCC#Cc3cccc4c3CN(C3CCC(=O)NC3=O)C4=O)CC2)CC1` (stereo not drawn) [Example E41]: the IC50 was not below 1060 nM.
Compound `CCc1cc(Nc2ncc(Cl)c(Nc3ccccc3P(C)(C)=O)n2)c(OC)cc1N1CCC2(CCN(C(=O)CCCOc3cccc4c3CN(C3CCC(=O)NC3=O)C4=O)CC2)CC1` (stereo not drawn) [Example E90] came in with an IC50 of 2070 nM.
Same read-out and setting: then `CCc1cc(Nc2ncc(C(=O)OC(C)C)c(Nc3ccccc3P(C)(C)=O)n2)c(OC)cc1N1CCC(N2CCN(CCCCOc3cccc4c3CN(C3CCC(=O)NC3=O)C4=O)CC2)CC1` (stereo not drawn) [Example E105], with 1490 nM; and `CCc1cc(Nc2ncc(Cl)c(Nc3ccccc3P(C)(C)=O)n2)c(OC)cc1N1CCC(N2CCN(CCC#Cc3ccc4c(c3)c(N3CCC(=O)NC3=O)nn4C)CC2)CC1` [Example E145], with more than 4000 nM; and `CCc1cc(Nc2ncc(-c3ccnn3C)c(Nc3ccccc3P(C)(C)=O)n2)c(OC)cc1N1CCC(N2CCN(CCOc3cccc4c3CN(C3CCC(=O)NC3=O)C4=O)CC2)CC1` (stereo not drawn) [Example E176], with more than 4000 nM.
`CCc1cc(Nc2ncc(-c3cnn(C)c3)c(Nc3ccccc3P(C)(C)=O)n2)c(OC)cc1N1CCC(N2CCN([C@H]3C[C@H](Oc4cc(F)cc5c4CN(C4CCC(=O)NC4=O)C5=O)C3)CC2)CC1` (stereo partly drawn) [Example E222] registered an IC50 of 133 nM.
